Results reported in ChEMBL document CHEMBL1135216, “New 2-(1-adamantylcarbonyl)pyridine and 1-acetyladamantane thiosemicarbazones-thiocarbonohydrazones: cell growth inhibitory, antiviral and antimicrobial activity evaluation” (Bioorg Med Chem Lett, 2002).

Experiments:
Vero [1] = assay: Tested for antiviral activity against parainfluenza virus in african green monkey kidney cell (Vero); assay type: functional; conditions: Chlorocebus sabaeus
MT4 [2] = assay: Tested for effective concentration required to protect MT-4 cells against the cytopathicity of HIV-2(ROD); assay type: functional, cell-based; conditions: Homo sapiens
HeLa [3] = assay: Tested for cytotoxic activity in human epithelial cell line (HeLa); assay type: functional
[4] = system: Staphylococcus epidermidis; assay: Tested for the antimicrobial activity against Staphylococcus epidermidis ATCC 12228; assay type: functional
HEL [5] = assay: Tested for antiviral activity against thymidine kinase wild type Varicella zoster virus in human embryonic lung fibroblast; assay type: functional
HeLa [6] = assay: The compound was tested for antiviral activity against VSV-virus in human epithelial cells; assay type: functional
K562 [7] = assay: Tested for the inhibitory concentration against cell growth of human leukemic cell line K562; assay type: functional
HuT78 [8] = assay: Tested for the inhibitory concentration against cell growth of human leukemic cell line HuT78; assay type: functional
E6SM [9] = assay: Tested for antiviral activity against herpes simplex virus type 1(KOS) in E6SM cell line(human embryonic skin-muscle fibroblasts); assay type: functional
HeLa [10] = assay: Tested for antiviral activity against coxsackie-B4 virus in human epithelial cell line; assay type: functional
K562 [11] = assay: Tested for the concentration required to reduce the viability of leukemia cells by 50% against cell growth of K562 chronic myeloid leukemia using MTT assay; assay type: functional; conditions: Homo sapiens, read-out: LC50 (the source's name)
RPMI-8226 [12] = assay: Tested for the inhibitory concentration against cell growth of human leukemic cell line RPMI8226; assay type: functional
Staphylococcus hominis = assay: Tested for the antimicrobial activity against Staphylococcus hominis ATCC 27844; assay type: functional
HL-60 [13] = assay: Tested for the inhibitory concentration against cell growth of HL60 acute myeloid leukemia using MTT assay; assay type: functional; conditions: Homo sapiens
Vero [14] = assay: Tested for cytotoxic activity in African green monkey kidney cells (Vero); assay type: functional; conditions: Chlorocebus sabaeus
RPMI-8226 [15] = assay: Tested for the concentration required to reduce the viability of leukemia cells by 50% against cell growth of RPMI8226 multiple myeloma using MTT assay; assay type: functional; conditions: Homo sapiens, read-out: LC50 (the source's name)
HL-60 [16] = assay: Tested for the inhibitory concentration against cell growth of human leukemic cell line HL60; assay type: functional
E6SM [17] = assay: Tested for antiviral activity against vaccinia virus in human embryonic skin muscle fibroblast; assay type: functional; conditions: Muscle tissue
Staphylococcus aureus = assay: Tested for the antimicrobial activity against Staphylococcus aureus ATCC 6538; assay type: functional
E6SM [18] = assay: Antiviral activity against thymidine kinase-deficient (TK-HSV-1)virus in E6SM cell line(human embryonic skin-muscle fibroblasts); assay type: functional
MOLT-4 [19] = assay: Tested for the concentration required to reduce the viability of leukemia cells by 50% against cell growth of T cell leukemia cell line MOLT-4 using MTT assay; assay type: functional; conditions: Homo sapiens, read-out: LC50 (the source's name)
MOLT-4 [20] = assay: Tested for the inhibitory concentration against cell growth of human leukemic cell line MOLT-4; assay type: functional
HEL [21] = assay: Tested for antiviral activity against human cytomegalovirus (AD-169) in human embryonic lung fibroblasts; assay type: functional
E6SM [22] = assay: Tested for antiviral activity against VSV-virus in human embryonic skin muscle fibroblasts; assay type: functional; conditions: Muscle tissue
MT4 [23] = assay: Tested for cytotoxic concentration required to reduce the viability of MT-4 cells by 50%; assay type: functional, cell-based; conditions: Homo sapiens, read-out: EC50 (the source's name)
Vero [24] = assay: Tested for antiviral activity against Sindbis virus in African green monkey kidney cell (Vero); assay type: functional; conditions: Chlorocebus sabaeus
RPMI-8226 [25] = assay: Tested for the inhibitory concentration against cell growth of […] multiple myeloma using MTT assay; assay type: functional; conditions: Homo sapiens
CCRF-CEM [26] = assay: Tested for the inhibitory concentration against cell growth of human leukemic cell line CCRF-CEM; assay type: functional
MT4 [27] = assay: Tested for effective concentration required to protect MT-4 cells against the cytopathicity of HIV-1(IIIB); assay type: functional; conditions: Homo sapiens, read-out: LC50 (the source's name)
HuT78 [28] = assay: Tested for the inhibitory concentration against cell growth of HuT78 T lymphoma using MTT assay; assay type: functional; conditions: Homo sapiens
Vero [29] = assay: Tested for antiviral activity against Reo-1 virus in African green monkey kidney cell (Vero); assay type: functional; conditions: Chlorocebus sabaeus
MOLT-4 [30] = assay: Tested for the inhibitory concentration against cell growth of Tcell leukemic cell line MOLT-4 using MTT assay; assay type: functional; conditions: Homo sapiens
K562 [31] = assay: Tested for the inhibitory concentration against cell growth of K562 chronic myeloid leukemia using MTT assay; assay type: functional; conditions: Homo sapiens
CCRF-CEM [32] = assay: Tested for the concentration required to reduce the viability of leukemia cells by 50% against cell growth of T cell leukemia cell line CCRF-CEM using MTT assay; assay type: functional; conditions: Homo sapiens, read-out: LC50 (the source's name)
Vero [33] = assay: Tested for antiviral activity against Punta toro virus in African green monkey kidney cell (Vero); assay type: functional; conditions: Chlorocebus sabaeus
HL-60 [34] = assay: Tested for the concentration required to reduce the viability of leukemia cells by 50% against cell growth of HL60 acute myeloid leukemia using MTT assay; assay type: functional; conditions: Homo sapiens, read-out: LC50 (the source's name)
HEL [35] = assay: Tested for antiviral activity against thymidine kinase deficient Varicella zoster virus in human embryonic lung fibroblasts; assay type: functional
Escherichia coli = assay: Tested for the antimicrobial activity against Escherichia coli ATCC 25922; assay type: functional
Klebsiella pneumoniae = assay: Tested for the antimicrobial activity against Klebsiella pneumoniae ATCC 13883; assay type: functional
Vero [36] = assay: Tested for antiviral activity against coxsackie B-4 virus in African green monkey kidney cell (Vero); assay type: functional; conditions: Chlorocebus sabaeus
CCRF-CEM [37] = assay: Tested for the inhibitory concentration against cell growth of Tcell leukemic cell line CCRF-CEM using MTT assay; assay type: functional; conditions: Homo sapiens
HuT78 [38] = assay: Tested for the concentration required to reduce the viability of leukemia cells by 50% against cell growth of HuT78 T lymphoma using MTT assay; assay type: functional; conditions: Homo sapiens, read-out: LC50 (the source's name)
HEL [39] = assay: Tested for cytotoxic activity in human embryonic lung fibroblast (HEL); assay type: functional
E6SM [40] = assay: Tested for cytotoxic activity in human embryonic skin muscle fibroblast (E6SM); assay type: functional; conditions: Muscle tissue
E6SM [41] = assay: Antiviral activity against thymidine kinase-deficient (TK-HSV-2G) virus in E6SM cell line(human embryonic skin-muscle fibroblasts); assay type: functional

## N/N=C(\S)N/N=C(/c1ccccn1)C12CC3CC(CC(C3)C1)C2
Vero [1]
  MIC: > 80 µg/mL
MT4 [2]
  EC50: > 27 µM
HeLa [3]
  MCC: 400 µg/mL
[4]
  MIC: > 3040 µg/mL
HEL [5]
  MIC: > 20 µg/mL
HeLa [6]
  MIC: > 80 µg/mL
K562 [7]
  GI50: 41.7 µM
HuT78 [8]
  GI50: 100 µM
E6SM [9]
  MIC: > 16 µg/mL
HeLa [10]
  MIC: > 80 µg/mL
K562 [11]
  CC50: 100 µM
RPMI-8226 [12]
  GI50: 100 µM
Staphylococcus hominis
  MIC: > 3040 µg/mL
HL-60 [13]
  TGI: 100 µM
Vero [14]
  MCC: 80 µg/mL
RPMI-8226 [15]
  CC50: 100 µM
HL-60 [16]
  TGI: 100 µM
E6SM [17]
  MIC: > 16 µg/mL
Staphylococcus aureus
  MIC: > 3040 µg/mL
E6SM [18]
  MIC: > 16 µg/mL
MOLT-4 [19]
  CC50: 100 µM
MOLT-4 [20]
  GI50: 100 µM
HEL [21]
  MIC: > 5 µg/mL
E6SM [22]
  MIC: > 16 µg/mL
MT4 [23]
  CC50: 27.3 µM
Vero [24]
  MIC: > 80 µg/mL
RPMI-8226 [25]
  TGI: 100 µM
CCRF-CEM [26]
  GI50: 100 µM
MT4 [27]
  EC50: > 27 µM
HuT78 [28]
  TGI: 100 µM
Vero [29]
  MIC: > 80 µg/mL
MOLT-4 [30]
  TGI: 100 µM
K562 [31]
  TGI: 100 µM
CCRF-CEM [32]
  CC50: 100 µM
Vero [33]
  MIC: > 80 µg/mL
HL-60 [34]
  CC50: 100 µM
HEL [35]
  MIC: > 20 µg/mL
Escherichia coli
  MIC: > 3040 µg/mL
Klebsiella pneumoniae
  MIC: > 3040 µg/mL
Vero [36]
  MIC: > 80 µg/mL
CCRF-CEM [37]
  TGI: 100 µM
HuT78 [38]
  CC50: 100 µM
HEL [39]
  MCC: > 20 µg/mL
E6SM [40]
  MCC: > 80 µg/mL
E6SM [41]
  MIC: > 16 µg/mL
